{
  "source": "patent US20210100740A1",
  "about": "“BIO-ADHESIVE DISSOLVING COMPOUNDS AND DEVICE” (Segal Innovations LLC, priority 2019, published 2021)",
  "origin": "cited, not measured here",
  "data": [
    {"smiles": "CO[C@@]12[C@H](COC(N)=O)C3=C(C(=O)C(C)=C(N)C3=O)N1C[C@@H]1N[C@@H]12", "note": "[mitomycin]", "values": [
      {"measurement": "degradation in acidic solutions and when exposed to light", "setting": "acidic solutions with a pH of less than 6, exposed to light", "value": "rapid degradation"},
      {"measurement": "how long mitomycin lasts", "setting": "refrigerated between 2° C. and 8° C. without being exposed to light", "value": "up to one week"}
    ]}
  ]
}
